Assay results from ChEMBL document CHEMBL1151563, “Synthesis of sialic acid-lipid conjugates and their neuritogenic effects on N1E.115 neuroblastoma cells” (1995).

How the values were obtained:
N1E-115 [1] = assay: Neuritogenic activity of compound was determined at 3 uM; value ranges from 105-115; type: functional, Mus musculus
[2] = NF/NR ratio is average amount of neurofilament per cell was determined at 1 uM; value ranges from 95-105; type: functional
N1E-115 [3] = assay: In neutral red (NR) assay the cell number relative to control was determined at 3 uM; value ranges from 65-75; type: functional, Mus musculus
N1E-115 [4] = assay: In neutral red (NR) assay the cell number relative to control was determined at 1 uM; value ranges from 95-105; type: functional, Mus musculus
N1E-115 [5] = assay: Neuritogenic activity of compound was determined at 1 uM; value ranges from 95-105; type: functional, Mus musculus
N1E-115 [6] = assay: Effect of compound on neurite outgrowth by measuring presence of cytoskeletal component in neurofilament (NF) ELISA assay at 1 uM; value ranges from 95-105; type: functional, Mus musculus
N1E-115 [7] = assay: Effect of compound on neurite outgrowth by measuring presence of cytoskeletal component in neurofilament (NF) ELISA assay at 3 uM; value ranges from 75-85; type: functional, Mus musculus
[8] = NF/NR ratio is average amount of neurofilament per cell was determined at 3 uM; value ranges from 105-115; type: functional
N1E-115 [9] = assay: Effect of compound on neurite outgrowth by measuring presence of cytoskeletal component in neurofilament (NF) ELISA assay at 3 uM; value ranges from 95-105; type: functional, Mus musculus
N1E-115 [10] = assay: Neuritogenic activity of compound was determined at 3 uM; value ranges from 95-105; type: functional, Mus musculus
[11] = NF/NR ratio is average amount of neurofilament per cell was determined at 3 uM; value ranges from 95-105; type: functional
N1E-115 [12] = assay: In neutral red (NR) assay the cell number relative to control was determined at 3 uM; value ranges from 75-85; type: functional, Mus musculus
[13] = NF/NR ratio is average amount of neurofilament per cell was determined at 3 uM; value ranges from 125-135; type: functional
N1E-115 [14] = assay: Neuritogenic activity of compound was determined at 1 uM; value ranges from 105-115; type: functional, Mus musculus
N1E-115 [15] = assay: Neuritogenic activity of compound was determined at 3 uM; value ranges from 125-135; type: functional, Mus musculus
[16] = NF/NR ratio is average amount of neurofilament per cell was determined at 1 uM; value ranges from 105-115; type: functional
N1E-115 [17] = assay: In neutral red (NR) assay the cell number relative to control was determined at 1 uM; value ranges from 75-85; type: functional, Mus musculus
N1E-115 [18] = assay: Neuritogenic activity of compound was determined at 3 uM; value ranges from 115-125; type: functional, Mus musculus
[19] = NF/NR ratio is average amount of neurofilament per cell was determined at 3 uM; value ranges from 115-125; type: functional

Compound	Activity (N1E-115 [1])	Ratio [2]	Activity (N1E-115 [3])	Activity (N1E-115 [4])	Activity (N1E-115 [5])	Activity (N1E-115 [6])	Activity (N1E-115 [7])	Ratio [8]	Activity (N1E-115 [9])	Activity (N1E-115 [10])	Ratio [11]	Activity (N1E-115 [12])	Ratio [13]	Activity (N1E-115 [14])	Activity (N1E-115 [15])	Ratio [16]	Activity (N1E-115 [17])	Activity (N1E-115 [18])	Ratio [19]
CC(=O)NC1C(O)CC(OC2CC[C@@]3(C)C(=CCC4[C@@H]5CC[C@H]([C@@H](C)CCCC(C)C)[C@@]5(C)CC[C@@H]43)C2)(C(=O)[O-])OC1[C@@H](O)[C@H](O)CO.[Na+] (some centres undefined)	105%	95	65%	95%	95%	95%	75%	105											
CC(C)CCC[C@@H](C)[C@H]1CCC2C3CC=C4CC(C(C(=O)O)C(=O)O)CC[C@]4(C)C3CC[C@@]21C (some centres undefined)		95			95%	95%			95%	95%	95								
CC(=O)NC1C(O)CC(OCCCOCOCC(COCOCCCOC2(C(=O)[O-])CC(O)C(NC(C)=O)C([C@@H](O)[C@H](O)CO)O2)(COCOCCCOC2(C(=O)[O-])CC(O)C(NC(C)=O)C([C@@H](O)[C@H](O)CO)O2)CO[C@H]2CCC3(C)C(=CCC4[C@@H]3CCC3(C)[C@@H](C(C)CCCC(C)C)CC[C@@H]43)C2)(C(=O)[O-])OC1[C@@H](O)[C@H](O)CO.[Na+].[Na+].[Na+] (some centres undefined)						95%			95%			85%	125	105%	125%	105			
CCCCCCCCCCCCCCCCOCOCCCO[C@]1(C(=O)O)C[C@@H](O)[C@@H](NC(C)=O)C([C@@H](O)[C@H](O)CO)O1 (some centres undefined)	105%	95		95%	95%	95%		105	95%										
CCCCCCCCCCCCCCCCOC1(C(=O)[O-])CC(O)C(NC(C)=O)C([C@@H](O)[C@H](O)CO)O1.[Na+] (some centres undefined)	105%					95%		105	95%			75%		105%		105	75%		
CC(=O)NC1C(O)CC(OCCCOCOC2CC[C@@]3(C)C(=CCC4[C@@H]5CC[C@H]([C@@H](C)CCCC(C)C)[C@@]5(C)CC[C@@H]43)C2)(C(=O)[O-])OC1[C@@H](O)[C@H](O)CO.[Na+] (some centres undefined)						95%			95%			75%		105%		105	75%	115%	115
